The results in this text go back to PubChem BioAssay AID1259407 (Chemical Carcinogenesis Research Information System (CCRIS), 2018).

The series deals with CCRIS mutagenicity, Ames/micronucleus/aberration tests. As to the kind of experiment: CCRIS mutagenicity studies.
[1] abbreviates: Test System: AMES SALMONELLA TYPHIMURIUM, Strain/Indicator: TA98, Metabolic Activation: NONE, Method: PREINCUBATION

The source made the active and inactive calls. How the calls were made is not given here.

On to `C/C=C1\C[C@@H](C)[C@](C)(OC(C)=O)C(=O)OC/C2=C/CN(C)CC[C@@H](OC1=O)C2=O`, for which the mutagenic call by setting is: (Test System: AMES SALMONELLA TYPHIMURIUM, Strain/Indicator: TA100, Metabolic Activation: HAMSTER, LIVER, S-9, PCB, Method: PREINCUBATION) “inactive; negative; by authors criteria results are positive”; (Test System: AMES SALMONELLA TYPHIMURIUM, Strain/Indicator: TA100, Metabolic Activation: RAT, LIVER, S-9, PCB, Method: PREINCUBATION) “active; positive”; (Test System: UDS RAT HEPATOCYTES, Strain/Indicator: THY INCORP, Metabolic Activation: NONE, Method: AUTORADIOGRAPHY) “active; positive”.
Consider `[O-][n+]1cccc2c1[C@H]1O[C@H]1C=C2`, for which the mutagenic call runs as follows: (Test System: AMES SALMONELLA TYPHIMURIUM, Strain/Indicator: TA100, Metabolic Activation: NONE, Method: STANDARD PLATE) “inactive; negative”; (Test System: AMES SALMONELLA TYPHIMURIUM, Strain/Indicator: TA100, Metabolic Activation: RAT, LIVER, S-9, AROCLOR 1254 (10 OR 20%), Method: STANDARD PLATE) “inactive; negative”.
As for `OCCN1CCN(CCCN2c3ccccc3Sc3ccc(C(F)(F)F)cc32)CC1`, the mutagenic call reads like this: (Test System: AMES SALMONELLA TYPHIMURIUM, Strain/Indicator: TA98, Metabolic Activation: NONE) “inactive; negative”; (Test System: AMES SALMONELLA TYPHIMURIUM, Strain/Indicator: TA98, Metabolic Activation: RAT, LIVER, S-9, PHENOBARBITAL AND 5,6-BENZOFLAVONE) “inactive; negative”; (Test System: AMES SALMONELLA TYPHIMURIUM, Strain/Indicator: TA100, Metabolic Activation: NONE) “inactive; negative”; (Test System: AMES SALMONELLA TYPHIMURIUM, Strain/Indicator: TA100, Metabolic Activation: RAT, LIVER, S-9, PHENOBARBITAL AND 5,6-BENZOFLAVONE) “inactive; negative”; (Test System: AMES SALMONELLA TYPHIMURIUM, Strain/Indicator: TA1535, Metabolic Activation: NONE) “inactive; negative”; (Test System: AMES SALMONELLA TYPHIMURIUM, Strain/Indicator: TA1535, Metabolic Activation: RAT, LIVER, S-9, PHENOBARBITAL AND 5,6-BENZOFLAVONE) “inactive; negative”. The mutagenic call runs as follows: (Test System: AMES SALMONELLA TYPHIMURIUM, Strain/Indicator: TA1537, Metabolic Activation: NONE) “inactive; negative”; (Test System: AMES SALMONELLA TYPHIMURIUM, Strain/Indicator: TA1537, Metabolic Activation: RAT, LIVER, S-9, PHENOBARBITAL AND 5,6-BENZOFLAVONE) “inactive; negative”; (Test System: E. COLI, Strain/Indicator: WP2 UVRA, Metabolic Activation: NONE) “inactive; negative”; (Test System: E. COLI, Strain/Indicator: WP2 UVRA, Metabolic Activation: RAT, LIVER, S-9, PHENOBARBITAL AND 5,6-BENZOFLAVONE) “inactive; negative”.
Consider `CCNC(=O)/C=C/c1ccc([N+](=O)[O-])o1`, for which the mutagenic call under setting [1] is “active; positive”.
On to `CC(C)Cl`, for which the mutagenic call is “inactive; negative” (End Point: In vitro micronucleus, Test System: Chinese Hamster Ovary (CHO-WBL) cells, Metabolic Activation: None); “active; positive” (Test System: AMES SALMONELLA TYPHIMURIUM, Strain/Indicator: TA100, Metabolic Activation: NONE, Method: DESICCATOR); “active; positive” (Test System: AMES SALMONELLA TYPHIMURIUM, Strain/Indicator: TA100, Metabolic Activation: RAT, LIVER, S-9, AROCLOR 1254, Method: DESICCATOR).
Consider `NCc1ccc(CN)cc1`, for which the mutagenic call was “inactive; negative” (End Point: IN VITRO CHROMOSOMAL ABERRATIONS, Test System: CHL CELLS, Metabolic Activation: NONE); “inactive; negative” (End Point: IN VITRO CHROMOSOMAL ABERRATIONS, Test System: CHL CELLS, Metabolic Activation: RAT, LIVER, S-9, SODIUM PHENOBARBITAL AND 5,6-BENZOFLAVONE); “inactive; negative” under setting [1]; “inactive; negative” (Test System: AMES SALMONELLA TYPHIMURIUM, Strain/Indicator: TA98, Metabolic Activation: RAT, LIVER, S-9, PHENOBARBITAL AND BETA-NAPHTHOFLAVONE, Method: PREINCUBATION); “inactive; negative” (Test System: AMES SALMONELLA TYPHIMURIUM, Strain/Indicator: TA100, Metabolic Activation: NONE, Method: PREINCUBATION); “inactive; negative” (Test System: AMES SALMONELLA TYPHIMURIUM, Strain/Indicator: TA100, Metabolic Activation: RAT, LIVER, S-9, PHENOBARBITAL AND BETA-NAPHTHOFLAVONE, Method: PREINCUBATION). For the same compound, the mutagenic call runs as follows: (Test System: AMES SALMONELLA TYPHIMURIUM, Strain/Indicator: TA102, Metabolic Activation: NONE, Method: PREINCUBATION) “inactive; negative”; (Test System: AMES SALMONELLA TYPHIMURIUM, Strain/Indicator: TA102, Metabolic Activation: RAT, LIVER, S-9, PHENOBARBITAL AND BETA-NAPHTHOFLAVONE, Method: PREINCUBATION) “inactive; negative”; (Test System: AMES SALMONELLA TYPHIMURIUM, Strain/Indicator: TA1535, Metabolic Activation: NONE, Method: PREINCUBATION) “inactive; negative”; (Test System: AMES SALMONELLA TYPHIMURIUM, Strain/Indicator: TA1535, Metabolic Activation: RAT, LIVER, S-9, PHENOBARBITAL AND BETA-NAPHTHOFLAVONE, Method: PREINCUBATION) “inactive; negative”; (Test System: AMES SALMONELLA TYPHIMURIUM, Strain/Indicator: TA1537, Metabolic Activation: NONE, Method: PREINCUBATION) “inactive; negative”; (Test System: AMES SALMONELLA TYPHIMURIUM, Strain/Indicator: TA1537, Metabolic Activation: RAT, LIVER, S-9, PHENOBARBITAL AND BETA-NAPHTHOFLAVONE, Method: PREINCUBATION) “inactive; negative”. The mutagenic call reads like this: (Test System: E. COLI, Strain/Indicator: WP2UVRA/PKM101, Metabolic Activation: NONE, Method: PREINCUBATION) “inactive; negative”; (Test System: E. COLI, Strain/Indicator: WP2UVRA/PKM101, Metabolic Activation: RAT, LIVER, S-9, PHENOBARBITAL AND BETA-NAPHTHOFLAVONE, Method: PREINCUBATION) “inactive; negative”; (Test System: E. COLI, Strain/Indicator: WP2UVRA/PKM101, Metabolic Activation: RAT, LIVER, S-9, SODIUM PHENOBARBITAL AND 5,6-BENZOFLAVONE, Method: PREINCUBATION) “inactive; negative”; (Test System: E. COLI, Strain/Indicator: WP2UVRA, Metabolic Activation: NONE, Method: PREINCUBATION) “inactive; negative”; (Test System: E. COLI, Strain/Indicator: WP2UVRA, Metabolic Activation: RAT, LIVER, S-9, PHENOBARBITAL AND BETA-NAPHTHOFLAVONE, Method: PREINCUBATION) “inactive; negative”.
